The values below come from article PMC10892288, “Early Stage Preclinical Formulation Strategies to Alter the Pharmacokinetic Profile of Two Small Molecule Therapeutics” (Pharmaceuticals, 2024).

Values after ≈ are worked out from the molar mass of the structure shown. Read-outs that look alike come from different tables or passages of the source. Where only a bound is given, the exact number is not on record here.

The test system of one data set is TEAD. Also on record: method as in PMID 33679401. As to conditions: cellular assays; read-out: half-maximal inhibitory concentration (IC50) in cellular assays; cited from earlier work.
A short description of data set [1]: Mouse PK of G7883, PO in MCT vehicle. The format is in vivo, female CD-1 mice. To be noted: for AUC(0-t) / Cmax / Tmax / bioavailability / half-life: female; for AUC(0-t): CD-1, mouse, plasma, po, read-out: AUC0 to 8; for Cmax / Tmax / bioavailability / half-life: CD-1, plasma. As to the method:
A total of 0.6% w/v Methylcellulose, 0.2% w/v Tween 80 in water (MCT) was prepared by slowly adding Methylcellulose (Methylocel A15 LV; CAS 9004-67-5, Part ID: 64605-500G-F 27.5-31.5% Methoxyl basis, Sigma-Aldrich, St. Louis, MO, USA) in small portions to prevent clumping while stirring into water at 70–80 °C. Once a homogeneous suspension formed, Tween 80 (Polysorbate 80; CAS#9005-65-6 (Polyoxyethylene (20) Sorbitan Monooleate; Tween 80) Part ID: PO138, Spectrum Chemical, New Brunswick, NJ, USA) was added and stirred until fully dissolved. Vehicle was filtered through 0.22 µm PES (Corning REF no. 431098) prior to adding to the compound for dosing. Respective compound was added based on the target concentration to the MCT vehicle and stirred at 35 °C until the power was well-dispersed. Formulations were homogenized through a polytron homogenizer and then sonicated in a water bath sonicator until a homogeneous suspension was achieved.
The pharmacokinetics of G7883 were determined in female CD-1 mice obtained from Charles River Laboratories (Hollister, CA, USA) with a body weight ranging from 20 to 25 g. The pharmacokinetics of G6893 were determined in female C57BL-6 mice (Lingchang/Vital River Laboratory Animal Co., Ltd., Shanghai/Beijing, China) with a body weight ranging from 20 to 35 g. Three mice were given an oral dose of G7883 formulated in 0.6% Methylcellulose, 0.2% Tween80 in water (MCT) at 25 mg/kg and 250 mg/kg with a dosing volume of 10 mL/kg. Food and water were available ad libitum to the animals. Three mice were given an oral dose of G6893 formulated in 0.6% methylcellulose; 0.2% Tween80 in water with pH adjusted to 2.5 at 30 mg/kg and a dose volume of 5 mL/kg. For both compounds, G7883 and G6893, 15 µL of blood was collected serially at 0. 25, 0.5, 1, 2, 4, 6, 8, and 24 h post-dose and diluted in 60 µL of 1.7 mg/mL potassium K2EDTA water. The frozen blood samples were stored at −70 °C or lower until analysis.
All plasma and cell media concentrations of G7883 and G6893 were determined using liquid chromatography–tandem mass spectrometry after protein precipitation with acetonitrile and injection of the supernatant onto the column (Waters ACQUITY UPLC BEH C18 1.7 μm, 2.1 × 50 mm for G7883 and G6893). The aqueous mobile phase was 0.1% formic acid, 2 mM ammonium formate in water/acetonitrile (v:v, 95:5), and the organic mobile phase was 0.1% formic acid, 2 mM ammonium formate in acetonitrile/water (v:v, 95:5). An AB Sciex API 4000 Triple Quad instrument was used for detecting G7883 and G6893 (Figure S2). The electrospray ionization source in both columns was operated in the positive ion and multiple reaction monitoring (MRM) detection modes. The MRM transitions for G7883 and G6893 were m/z 462.2 (Q1) and 253.10 (Q3) and m/z 454.2 (Q1) and 325.9 (Q3), respectively. The dynamic range of both assays was 0.50–50.0 ng/mL, and the total run time was 1.6 min. The lower limit of quantitation of the assay was […], and the dilution quality control concentration was set at 10 ng/mL with acceptance criteria for accuracy and precision of 25%.
All plasma and cell media concentrations of G7883 were determined using liquid chromatography–tandem mass spectrometry after protein precipitation with acetonitrile and injection of the supernatant onto the column (Phenomenex Kinetex XB-C18, 30 × 2.1 mm, 2.6 µm). The aqueous mobile phase was 10 mM of ammonium formate in water, and the organic mobile phase was 0.1% formic acid in acetonitrile. An AB Sciex API 5500 Triple Quad instrument was used for detecting G7883. The electrospray ionization source in both columns was operated in the positive ion and MRM detection modes. The MRM transitions for G7883 were m/z 462.2 (Q1) and 253.10 (Q3), respectively. The dynamic range of the assay was 0.50–50.0 ng/mL, and the total run time was 2 min. […]

The nature of data set [2]: Vehicle screening for solution or suspension formulations. The data set is classed as physicochemical. As to the method:
Based on the target concentration, G7883 was screened at 3.3 mg/mL in three different vehicles of 100%PEG400, 10%DMSO in 90%PEG400, and 20%DMSO in 80%PEG400 to generate a stable solution. […] A total of 50% DMSO is the maximum amount compatible with the iPRECIO pump system. Based on the target concentration, G6893 was screened at 5 mg/mL in four different vehicles as follows: 100% PEG400, 20% DMSO in 80% PEG400, 20% DMA and 40% PG in 40% PEG400, and 10% EtOH and 20% HPbCD in 70% water at pH 4.5. G6893 achieved a solution at the target concentration of 5 mg/mL in 100% PEG400 and maintained a solution without precipitation after dilution in PBS buffer.
G7883 was screened in different oil vehicles including corn, coconut, paraffin, soybean, and sunflower oil.

Data set [3] can be described thus: Solubility in phosphate buffer saline (PBS). As to conditions: phosphate buffered saline (PBS). The data set is classed as physicochemical.
The nature of data set [4]: Body weight change in multiday IP study. The data set is classed as in vivo. To be noted: IP 150 mpk BID, study spanning over 10 days, mice.
Data set [5] can be described thus: Water solubility (physiochemical properties). The data set is classed as physicochemical. To be noted: water.
Setting [6] is: 250 mg/kg, PO 250 mpk, mean ± SD.

Regarding `Cc1nccnc1-c1nn2c(=O)cc(-c3ccc(C4CCCCC4)cc3)[nH]c2c1C(=O)N1CC(CF)C1` [G7883, 5-(4-cyclohexylphenyl)-3-[3-(fluoromethyl)azetidine-1-carbonyl]-2-(3-methylpyrazin-2-yl)-4H-pyrazolo[1,5-a]pyrimidin-7-one], the IC50 with TEAD was 1.4 µM. In data set [1] (PO 250 mpk, mean ± SD, 250 mg/kg), the “AUC0 to 8” value came to 25.1 ± 5.43 µM·h. Besides, the AUC(0-t) turned out to be 1.99 ± 0.4 µM·h in data set [1] (25 mg/kg, PO 25 mpk, mean ± SD) and 25 µM·h in data set [1] (setting [6]). Moreover, the highest concentration (Cmax) (commonly the maximum level reached in the sampled fluid or tissue) in data set [1] (25 mg/kg, PO 25 mpk, mean ± SD) was found to be 1.25 ± 0.82 µM; in data set [1] (setting [6]), 6.85 ± 2.24 µM. The Tmax – broadly, the time at which the peak concentration occurs – is 0.5 h in data set [1] (25 mg/kg, PO 25 mpk, mean ± SD) and 0.583 ± 0.382 h in data set [1] (setting [6]). For the same compound, the bioavailability in data set [1] (25 mg/kg, PO 25 mpk, mean ± SD, read-out: F) is 6.18 ± 1.24%; in data set [1] (250 mg/kg, PO 250 mpk, mean ± SD, read-out: F), 7.8 ± 1.69%; in data set [1] (PO, 25 to 250 mpk, read-out: bioavailability), about 7%. Moreover, the half-life in data set [1] (25 mg/kg, PO 25 mpk, mean ± SD, read-out: t1/2 (converted)) was 2.17 ± 0.73 h; in data set [1] (250 mg/kg, PO 250 mpk, mean ± SD, read-out: t1/2 (converted)), 2.74 ± 0.201 h; in data set [1] (PO, 25 to 250 mpk, read-out: plasma half-life (converted)) it was 2 h. In data set [2] (20%DMSO in 80%PEG400), the “concentration at which a solution was achieved” value is at least 3300 µg/mL. For the same compound, the “solubility in oil vehicle (in words)” value in data set [2] (sunflower oil) is given as “moderate solubility”. Besides, the solubility (as a rule, how much of the substance goes into solution per volume) turned out to be 0.089 mg/mL (≈ 178 µM) in data set [3] and 0.085 mg/mL (≈ 170 µM) in data set [5]. In addition, in data set [4], the body weight change entry was “significant decreases in the body weights of mice were observed”.
